# Source: US20020052504A1, “PIPERIDINE DERIVATIVES AND THEIR USE AS TACHYKININ ANTAGONISTS” (priority 1997, published 2002)
# pIC50: −log10 of the molar value. Structures can show the parent of a compound that is named as a salt.
# Biological target: human NK1 receptor (Homo sapiens, UniProt P25103)
# Test: NK1 receptor test by the methods of WO 93/01165 (pages 36 to 39)
# Type: binding
# Description: The exemplified compounds of this invention were tested by the methods set out at pages 36 to 39 of International Patent Specification No. WO 93/01165.
# human NK1 receptor, sequence (P25103 whole entry): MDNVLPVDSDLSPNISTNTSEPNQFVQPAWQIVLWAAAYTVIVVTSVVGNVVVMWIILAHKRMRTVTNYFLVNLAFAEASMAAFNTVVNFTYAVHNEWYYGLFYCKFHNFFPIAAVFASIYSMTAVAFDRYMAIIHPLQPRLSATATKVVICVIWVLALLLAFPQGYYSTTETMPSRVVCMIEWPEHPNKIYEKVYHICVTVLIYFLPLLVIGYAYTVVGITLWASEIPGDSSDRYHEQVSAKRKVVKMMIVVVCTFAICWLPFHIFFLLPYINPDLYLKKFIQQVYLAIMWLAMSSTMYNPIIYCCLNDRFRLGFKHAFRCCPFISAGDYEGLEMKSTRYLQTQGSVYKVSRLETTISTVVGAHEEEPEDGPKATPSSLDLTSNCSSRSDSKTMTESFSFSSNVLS
row,SMILES,pIC50
1,"Fc1ccc(C2NCCCC2NCc2cc(-n3nnnc3C(F)(F)F)ccc2OC2CC2)cc1 (racemic) [Example 2, (±)-(2 R3 R 2 S3 S)-N-({2-Cyclopropoxy-5-[5-(trifluoromethyl)tetrazol-1-yl]phenyl}methyl)-2-(4-fluorophenyl)piperidin-3-amine Dihydrochloride]",9.89
2,"FC(F)(F)c1nnnn1-c1ccc(OC2CC2)c(CN[C@H]2CCCN[C@H]2c2ccccc2)c1 [Example 1, (2 S3 S)-N-({2-Cyclopropoxy-5-[5-(trifluoromethyl)tetrazol-1-yl]phenyl}methyl)-2-phenylpiperidin-3-amine Dihydrochloride]",10.10
